Data on 6 compounds can be found in ChEMBL document CHEMBL1128801, “Synthesis and biological evaluation of 14-alkoxymorphinans.12.1 A phenethyl analogue of the -selective opioid receptor antagonist cyprodime” (Bioorg Med Chem Lett, 1995).

Molecules are shown by their SMILES.

The EC50 is the concentration needed to bring the measured effect to its halfway point. A word on the ED50: it is the midpoint of the dose-response relation. Read a low ED50 as an effect at a small dose. For orientation: Ki means a measure of affinity in units of concentration, obtained from inhibition or displacement.

The species entered for test [1] is Mus musculus. Briefly: In Vitro evaluation of antagonist activity induced by naloxone on mouse vas deferens preparation. Type of test: functional.
The species named for test [2] is Mus musculus. The test is described as follows: Effective concentration required for in Vitro evaluation of agonist activity on mouse vas deferens preparation. Type of test: functional.
For test [3], the system named is Rattus norvegicus. The test is described as follows: Effective dose required for in vivo antinociceptive effect in rat when administered subcutaneously. The test is classed as functional. The note with it: sc.
Test [4] addresses Mu-type opioid receptor (Cavia porcellus, UniProt P97266). Briefly: Binding affinity by its ability to displace [3H]DAMGO from mu receptor in homogenates of guinea pig brain. Type of test: tissue-based.
In test [5] the target is Kappa-type opioid receptor (Cavia porcellus, UniProt P41144). The test is described as follows: Binding affinity by its ability to displace [3H]-U-69,593 from kappa receptor in homogenates of guinea pig brain. The test is classed as tissue-based.
Sequence of Kappa-type opioid receptor (P41144 whole entry): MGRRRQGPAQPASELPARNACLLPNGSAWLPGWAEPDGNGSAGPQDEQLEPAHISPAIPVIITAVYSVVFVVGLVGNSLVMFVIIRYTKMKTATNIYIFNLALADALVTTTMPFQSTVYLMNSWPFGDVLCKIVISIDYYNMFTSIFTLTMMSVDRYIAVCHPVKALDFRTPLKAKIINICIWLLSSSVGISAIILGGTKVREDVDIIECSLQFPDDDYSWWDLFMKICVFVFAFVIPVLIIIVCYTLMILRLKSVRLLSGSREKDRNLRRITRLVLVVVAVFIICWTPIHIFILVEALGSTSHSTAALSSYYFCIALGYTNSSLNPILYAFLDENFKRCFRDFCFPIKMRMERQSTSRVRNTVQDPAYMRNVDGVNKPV
Test [6] is filed under the species Cavia porcellus. Briefly: Effective concentration required for in vitro agonist potency in guinea-pig ileum myenteric plexus preparation (GPI). The test is classed as functional.
The species named for test [7] is Mus musculus. Briefly: Effective concentration required for in vitro evaluation of agonist activity on mouse vas deferens preparation. Type of test: functional.
The species entered for test [8] is Cavia porcellus. The test is described as follows: In vitro evaluation of antagonistic activity induced by naloxone in guinea-pig ileum myenteric plexus preparation (GPI). The test is classed as functional.
The species named for test [9] is Mus musculus. The test is described as follows: In vitro evaluation of antagonist activity induced by naloxone on mouse vas deferens preparation. The test is classed as functional.
The species entered for test [10] is Cavia porcellus. The test is described as follows: Effective concentration of compound required for in vitro agonist potency in guinea-pig ileum myenteric plexus preparation (GPI). The test is classed as functional.
The species entered for test [11] is Mus musculus. The test is described as follows: Effective concentration of compound required for in vitro agonist activity on mouse vas deferens preparation. The test is classed as functional.

Sequence of Mu-type opioid receptor (P97266 whole entry): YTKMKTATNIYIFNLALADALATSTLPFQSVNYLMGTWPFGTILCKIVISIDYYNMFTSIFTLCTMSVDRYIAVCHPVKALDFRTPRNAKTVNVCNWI

On to `CC1(C)SSC(C)(C)[C@@H](NC(=O)[C@@H](N)Cc2ccc(O)cc2)C(=O)NCC(=O)N[C@@H](Cc2ccccc2)C(=O)N[C@H]1C(=O)O`, for which the Ke in test [1] was 20.4 nM. Further, the EC50 in [2] came out at 2.8 nM.
Turning to `CN1CC[C@]23c4c5ccc(O)c4O[C@H]2[C@@H](O)C=C[C@H]3[C@H]1C5.Cl` [MORPHINE HYDROCHLORIDE], the ED50 in test [3] was 1.8 mg/kg.
For the compound `COc1cccc2c1[C@]13CCN(C)[C@H](C2)[C@]1(OC)CCC(=O)C3`, the ED50 in test [3] is 0.021 mg/kg. Also, the Ki was determined as 0.7 nM in test [4] and 1.5 nM in test [5].
In [5], `COc1cccc2c1[C@]13CCN(CC4CC4)[C@H](C2)[C@]1(OC)CCC(=O)C3` [CYPRODIME BROMIDE] returned a Ki of 61.1 nM.
Take `C[C@@H](NC(=O)[C@@H](N)Cc1ccc(O)cc1)C(=O)NCC(=O)N(C)[C@@H](Cc1ccccc1)C(=O)NCCO` [DAMGO]: the EC50 in test [6] amounted to 11.8 nM; in test [7] it was 24.7 nM. Besides, the results for the Ke in [8] and in [9] were 1.6 nM and 1.9 nM, respectively.
On to `Br.COc1cccc2c1[C@]13CCN(CCc4ccccc4)C(C2)[C@]1(OC)CCC(=O)C3`, for which, in [3], it took a dose of 0.037 mg/kg to reach the 50% effect level (ED50). For the same compound, the EC50 in test [10] was 17.4 nM; in test [11], 11.8 nM. Moreover, the Ki in test [4] amounted to 0.9 nM; in [5], 690 nM. Besides, the Ke in test [8] was 0.54 nM; in test [9], 1.67 nM.
